This is an account of results in BindingDB's records for doi:10.1016/j.jmb.2007.03.021 (University of Marburg, 2007).

This test addresses Aldo-keto reductase family 1 member B1 (Homo sapiens, UniProt P15121). The experiment in a line: Enzyme Inhibition Assay. The conditions noted are these: pH 6.2; 30 °C. The procedure:
The activity of the test enzyme was determined spectrophotometrically by monitoring the change in absorbance at 340 nm, which is due to the oxidation of NADPH or the reduction of NAD+ catalyzed by ALR2. The determination of the IC50 values was performed by using linear regression analysis of the log dose response curve.
For the compound `O=C(O)CN1C(=O)c2c(ccc3ccccc23)S1(=O)=O` [2-(3,5,5-trioxo-5-thia-4-azatricyclo[7.4.0.0^{2,6}]trideca-1,6,8,10,12-pentaen-4-yl)acetic acid], inhibition was half-maximal at 10 µM (IC50).

For the compound `Nc1cccc2c3c(ccc12)S(=O)(=O)N(CC(=O)O)C3=O` [2-(10-amino-3,5,5-trioxo-5-thia-4-azatricyclo[7.4.0.0^{2,6}]trideca-1,6,8,10,12-pentaen-4-yl)acetic acid], the IC50 (commonly the concentration that gives 50% inhibition) worked out at 100 µM.

As for `O=C(O)CN1C(=O)c2c(ccc3c([N+](=O)[O-])cccc23)S1(=O)=O` [2-(10-nitro-3,5,5-trioxo-5-thia-4-azatricyclo[7.4.0.0^{2,6}]trideca-1,6,8,10,12-pentaen-4-yl)acetic acid], the IC50 came out at 180 µM.

As to `Nc1cccc2ccc3c(c12)C(=O)N(CC(=O)O)S3(=O)=O` [2-(13-amino-3,5,5-trioxo-5-thia-4-azatricyclo[7.4.0.0^{2,6}]trideca-1,6,8,10,12-pentaen-4-yl)acetic acid], the IC50 came out at 100 µM. This IC50 is about 1.8-fold lower than that of the compound before.

`O=C(O)CN1C(=O)c2c(ccc3cccc([N+](=O)[O-])c23)S1(=O)=O` [2-(13-nitro-3,5,5-trioxo-5-thia-4-azatricyclo[7.4.0.0^{2,6}]trideca-1,6,8,10,12-pentaen-4-yl)acetic acid] yielded an IC50 of 190 µM.

Consider `O=C(O)CN1C(=O)c2c(c(C(=O)O)cc3ccccc23)S1(=O)=O` [2-(carboxymethyl)-1-oxo-1,2-dihydronaphtho[1,2-d]isothiazole-4-carboxylic acid 3,3-dioxide], for which the IC50 stood at 0.14 µM. This IC50 is about 1400-fold lower than that of the compound before.

Compound `O=C(O)COC(=O)c1cc2ccccc2c2c1S(=O)(=O)N(CC(=O)O)C2=O` [2-{[4-(carboxymethyl)-3,5,5-trioxo-5-thia-4-azatricyclo[7.4.0.0^{2,6}]trideca-1,6,8,10,12-pentaen-7-yl]carbonyloxy}acetic acid] had an IC50 of 0.55 µM.

As for `CN1C(=O)c2c(c(C(=O)O)cc3ccccc23)S1(=O)=O` [4-methyl-3,5,5-trioxo-5-thia-4-azatricyclo[7.4.0.0^{2,6}]trideca-1,6,8,10,12-pentaene-7-carboxylic acid], the IC50 was 88 µM.
